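Exposure lasted 48 hours, with cells grown in 96-well plates and compounds tested at five concentrations. GI50: concentration for 50% inhibition of growth.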 Activity calls are given as the source filed them. No stated cut-off is given here; in the data, active = GI50 up to about 1.1 µM and inactive = higher.
Key:
Assay in all cases: growth of human tumour cells (NCI), 48 h
SW-620 = tested on: SW-620
OVCAR-3 = tested on: OVCAR-3
PC-3 = tested on: PC-3
MDA-N = tested on: MDA-N
U-251 = tested on: U-251
UO-31 = tested on: UO-31
HL-60 = tested on: HL-60
SK-MEL-2 = tested on: SK-MEL-2
KM12 = tested on: KM12
NCI-H23 = tested on: NCI-H23
NCI-H522 = tested on: NCI-H522
MDA-MB-231 = tested on: MDA-MB-231
UACC-257 = tested on: UACC-257
CAKI-1 = tested on: CAKI-1
RPMI-8226 = tested on: RPMI-8226
LOX IMVI = tested on: LOX IMVI
IGROV-1 = tested on: IGROV-1
NCI-H460 = tested on: NCI-H460
T47D = tested on: T47D
DMS-273 = tested on: DMS-273

Structure (SMILES)	GI50 (SW-620)	GI50 (OVCAR-3)	GI50 (PC-3)	GI50 (MDA-N)	GI50 (U-251)	GI50 (UO-31)	GI50 (HL-60)	GI50 (SK-MEL-2)	GI50 (KM12)	GI50 (NCI-H23)	GI50 (NCI-H522)	GI50 (MDA-MB-231)	GI50 (UACC-257)	GI50 (CAKI-1)	GI50 (RPMI-8226)	GI50 (LOX IMVI)	GI50 (IGROV-1)	GI50 (NCI-H460)	GI50 (T47D)	GI50 (DMS-273)
CCn1cc(C(=O)O)c(=O)c2cc(F)c(N3CCN(CN4C(=O)/C(=N\c5ncc(Cc6cc(OC)c(OC)c(OC)c6)c(N)n5)c5cc(Cl)ccc54)CC3)cc21	5.3 µM (inactive)	> 100 µM (inactive)	> 100 µM (inactive)	45.5 µM (inactive)	61.4 µM (inactive)	> 100 µM (inactive)	20 µM (inactive)	> 100 µM (inactive)	50.2 µM (inactive)	> 100 µM (inactive)	> 100 µM (inactive)	> 100 µM (inactive)	> 100 µM (inactive)	> 100 µM (inactive)	0.0399 µM (active)	> 100 µM (inactive)	8.24 µM (inactive)	> 100 µM (inactive)	> 100 µM (inactive)	
CC1(C)C2CCC1(CS(=O)(=O)Nc1ccccc1)C(=O)C2 (stereo unspecified)	> 100 µM (inactive)	> 100 µM (inactive)	> 100 µM (inactive)	> 100 µM (inactive)	> 100 µM (inactive)	75.9 µM (inactive)	> 100 µM (inactive)	> 100 µM (inactive)	> 100 µM (inactive)	> 100 µM (inactive)	> 100 µM (inactive)	> 100 µM (inactive)	> 100 µM (inactive)	> 100 µM (inactive)	> 100 µM (inactive)	> 100 µM (inactive)	> 100 µM (inactive)	> 100 µM (inactive)	> 100 µM (inactive)	
CSc1cc(N)ccc1/N=N/c1ccc(S(N)(=O)=O)cc1	41.7 µM (inactive)	25.1 µM (inactive)	32.7 µM (inactive)	61.7 µM (inactive)	26.9 µM (inactive)	16.5 µM (inactive)	25.1 µM (inactive)	24.2 µM (inactive)	30.4 µM (inactive)	33.4 µM (inactive)	17.7 µM (inactive)	16.1 µM (inactive)	80 µM (inactive)	36.1 µM (inactive)	16.4 µM (inactive)	29.6 µM (inactive)	23.1 µM (inactive)	24.2 µM (inactive)	18.8 µM (inactive)	
COC(=O)c1ccccc1CC1Cc2cc3c(cc2C1=O)CCC3 (stereo unspecified)	3.82 µM (inactive)	13.1 µM (inactive)	11.1 µM (inactive)	1.93 µM (inactive)	10.4 µM (inactive)	22.3 µM (inactive)	3.83 µM (inactive)	7.87 µM (inactive)	8.67 µM (inactive)	19.3 µM (inactive)	5.28 µM (inactive)	8.85 µM (inactive)	19.3 µM (inactive)	11.1 µM (inactive)	10.5 µM (inactive)	7.31 µM (inactive)	16 µM (inactive)	29.7 µM (inactive)	16 µM (inactive)	
Cc1cc(Cl)ccc1NC(=O)C(=O)Cc1nc2ccc(C(=O)c3ccccc3)cc2nc1O	97.9 µM (inactive)	> 100 µM (inactive)				78.7 µM (inactive)	99.5 µM (inactive)	> 100 µM (inactive)	42.5 µM (inactive)	> 100 µM (inactive)	39.4 µM (inactive)		> 100 µM (inactive)	> 100 µM (inactive)		> 100 µM (inactive)	> 100 µM (inactive)	96.8 µM (inactive)		49.2 µM (inactive)
COC(=O)N/N=C/c1oc(-c2cccc([N+](=O)[O-])c2)c(-c2cccc([N+](=O)[O-])c2)c1[N+](=O)[O-]	> 100 µM (inactive)	> 100 µM (inactive)			> 100 µM (inactive)	> 100 µM (inactive)	19.3 µM (inactive)		> 100 µM (inactive)	> 100 µM (inactive)	60.8 µM (inactive)		> 100 µM (inactive)		30.1 µM (inactive)	37.2 µM (inactive)	> 100 µM (inactive)	> 100 µM (inactive)		> 100 µM (inactive)
CC(=O)OC(OC(C)=O)c1ncccc1C(=O)OC(C)C	> 100 µM (inactive)	> 100 µM (inactive)			18.3 µM (inactive)	61.7 µM (inactive)	8.65 µM (inactive)	> 100 µM (inactive)	63.7 µM (inactive)	56.1 µM (inactive)	75.7 µM (inactive)		> 100 µM (inactive)	> 100 µM (inactive)		20.9 µM (inactive)	> 100 µM (inactive)	11.3 µM (inactive)		31.3 µM (inactive)
NC(Cc1cccnn1)C(=O)O (stereo unspecified)	> 100 µM (inactive)	> 100 µM (inactive)	> 100 µM (inactive)	> 100 µM (inactive)	> 100 µM (inactive)	> 100 µM (inactive)	> 100 µM (inactive)	> 100 µM (inactive)	> 100 µM (inactive)	> 100 µM (inactive)	> 100 µM (inactive)	> 100 µM (inactive)	> 100 µM (inactive)	> 100 µM (inactive)	> 100 µM (inactive)	> 100 µM (inactive)	> 100 µM (inactive)	> 100 µM (inactive)	> 100 µM (inactive)	
CCCCNC(=S)OCCC(C)CCCC(C)C (stereo unspecified)	> 100 µM (inactive)				> 100 µM (inactive)	> 100 µM (inactive)	> 100 µM (inactive)	> 100 µM (inactive)	> 100 µM (inactive)	> 100 µM (inactive)			> 100 µM (inactive)	> 100 µM (inactive)	> 100 µM (inactive)	> 100 µM (inactive)	> 100 µM (inactive)	> 100 µM (inactive)		> 100 µM (inactive)
CCN(CC)CC(=O)NC1c2ccccc2Oc2ccccc21	> 100 µM (inactive)				> 100 µM (inactive)	> 100 µM (inactive)	> 100 µM (inactive)			> 100 µM (inactive)			> 100 µM (inactive)		> 100 µM (inactive)	> 100 µM (inactive)	> 100 µM (inactive)	> 100 µM (inactive)		> 100 µM (inactive)
O=C(c1cccc(OCc2ccccc2)c1OCc1ccccc1)N1CCSC1=S	43.4 µM (inactive)	21.1 µM (inactive)	21 µM (inactive)	27.9 µM (inactive)	29.1 µM (inactive)	10.6 µM (inactive)	5.92 µM (inactive)	34.6 µM (inactive)	5.13 µM (inactive)	19.1 µM (inactive)	12.3 µM (inactive)	19.8 µM (inactive)	28.5 µM (inactive)	31 µM (inactive)	8.38 µM (inactive)	34.2 µM (inactive)	28.6 µM (inactive)	28 µM (inactive)	5.66 µM (inactive)	
CC(=O)O[C@@H]1C(C2CCCCC2)C=[N+]([O-])O[C@@H]1OC1CCCC1(c1ccccc1)c1ccccc1 (stereo partly specified)	2.04 µM (inactive)	2.7 µM (inactive)	9.59 µM (inactive)	4.28 µM (inactive)	12.5 µM (inactive)	8.09 µM (inactive)	1.6 µM (inactive)	9.91 µM (inactive)	8.04 µM (inactive)	11 µM (inactive)	2.07 µM (inactive)	8.45 µM (inactive)	14.9 µM (inactive)	5.33 µM (inactive)	2.58 µM (inactive)	1.94 µM (inactive)	3.21 µM (inactive)	13.3 µM (inactive)	2.45 µM (inactive)	
